Several values for one entry are separate records, joined by “and”; a condition that tells them apart may be missing. Equal values may be shown once. Entries after “also recorded” stand apart in the source; their conditions may differ. Read-outs that look alike come from different tables or passages of the source.
Experiment: Pharmacokinetic monitoring of plasma LPV and RTV (HPLC/MS–MS) in TB/HIV co-infected patients on LPV/RTV plus rifabutin
Type: in vivo, human
Conditions: for concentration: read-out: C0 (plasma drug concentration before the morning dose); for Tmax, individual patients: unit from Table 2; for AUC(0-t): read-out: AUC0–12h; for concentration at 12 h: read-out: C12 (plasma drug concentration 12 h post-dose); for C1, individual patients: individual plasma concentration at 1 h; for C2, individual patients: individual plasma concentration at 2 h; for C3, individual patients: individual plasma concentration at 3 h; for C4, individual patients: individual plasma concentration at 4 h; for C6, individual patients: individual plasma concentration at 6 h; for C8, individual patients: individual plasma concentration at 8 h; for C12, individual patients: individual plasma concentration at 12 h; for C0, individual patients: individual plasma concentration before dose, per patient
Protocol: This was a pharmacokinetic study based on the use of LPV and RTV in HIV and tuberculosis co-infected adults. They were being treated with rifabutin 150 mg thrice weekly or rifabutin 300 mg thrice weekly.
The patients were participating in the RIFLOPI study registered on PACTR201310000629390. They were recruited from the Bogodogo and Kossodo district hospitals in Ouagadougou from May 2013 to December 2015. Study inclusion criteria were that the patients were between 18 and 60 years of age, HIV-1 infected with pulmonary tuberculosis confirmed or suspected. […] The 2 weeks minimum delay comes from the time frame of building up full induction effect. The participating patients were divided into two groups. The first group (RBT 150 mg thrice weekly) consisted of nine patients on antiretroviral and anti-tuberculosis treatment including LPV (LPV/RTV 400/100 mg + 2INTI) twice daily in combination with rifabutin 150 mg thrice weekly and standard ethambutol–isoniazid–pyrazinamide. The second group (RBT 300 mg thrice weekly) consisted of seven patients treated with (LPV/RTV 400/100 mg + 2INTI) twice daily in combination with rifabutin 300 mg thrice weekly and standard ethambutol–isoniazid–pyrazinamide. […] Each patient took a daily dose of cotrimoxazole to prevent opportunistic infections associated with HIV.
Pharmacokinetic monitoring was performed after 2 weeks of combined LPV/RTV and RBT treatment. On the day before pharmacokinetic monitoring, patients were admitted and fasted from midnight onwards. The pharmacokinetic assessment was conducted on a day when a dose of RBT was taken. The first measure of the pharmacokinetic monitoring (time zero) was performed on an empty stomach before taking the daily dose of RBT and LPV/RTV. After the first blood sampling, patients immediately (within 5 min) took their rifabutin and LPV/RTV regimen. Subsequent blood samples for pharmacokinetic monitoring were collected at 1, 2, 3, 4, 6, 8 and 12 h after combined drug ingestion. Breakfast (a sandwich and water) was served to the patients 2 h after drug ingestion.
Two to three millilitres of blood was collected in a heparinized primary vial and centrifuged at 3000 rpm for 10 min within 1 h of collection. The plasma was stored at − 20 °C until transportation to the laboratory for the pharmacokinetic analysis.
A high-performance liquid chromatography–mass spectrometry (HPLC/MS–MS) assay previously described by Moyer et al. was used to determine the LPV and RTV plasma concentrations at the Service of Clinical Pharmacology (IRCCS S Matteo, Pavia, Italy). The limit of quantification was 0.05 µg/mL for both drugs. The assay was validated in accordance with the European Medicines Agency (EMA) “Guidelines on bioanalytical method validation. The areas under the plasma concentration–time curve (AUC) were calculated by using the linear trapezoidal rule.
Data were entered using EpiData (http://www.epidata.dk) and Excel and analysed with Stata, version 13 (https://www.stata.com, StataCorp LP; College Station, TX, USA). Descriptive statistics were used to describe the patient’s characteristics and to calculate the frequencies, proportions and medians with interquartile intervals. Statistical comparisons were made using Fisher’s exact test with 5% set as the significance level. For the LPV and RTV pharmacokinetic profile, we determined for each patient the Cmax (peak concentration measured (µg/mL)), the Ctrough (drug plasma concentration measured just prior to administration of the drug dose (µg/mL)), the Tmax (time for Cmax), the area under the curve during a dosing interval (AUC0–12 = plasma concentration * time (µg × h/mL) and the apparent clearance (CL/F, true clearance divided by the true absolute bioavailability).

[1] = first group RBT 150 mg TPW, listed as RTV
[2] = human, plasma, oral, LPV/RTV 400/100 mg twice daily with RBT 150 mg TPW (n = 9), median and IQR
[3] = human, plasma, oral, LPV/RTV 400/100 mg twice daily with RBT 300 mg TPW (n = 7), median and IQR
[4] = second group RBT 300 mg TPW, listed as RTV

CC(C)c1nc(CN(C)C(=O)N[C@H](C(=O)N[C@@H](Cc2ccccc2)C[C@H](O)[C@H](Cc2ccccc2)NC(=O)OCc2cncs2)C(C)C)cs1 [Ritonavir, ritonavir]
concentration (LPV/RTV 400/100 mg twice daily with RBT 150 mg TPW (arm A, n = 9), median and IQR, plasma): 2100 ng/mL | concentration (LPV/RTV 400/100 mg twice daily with RBT 300 mg TPW (arm B, n = 7), median and IQR, plasma): 1600 ng/mL | AUC0–12, individual patients [1]: 10800 ng·h/mL and 23500 ng·h/mL and 14800 ng·h/mL and 7800 ng·h/mL and 8900 ng·h/mL and 12800 ng·h/mL and 12200 ng·h/mL and 18500 ng·h/mL | Cl, individual patients [1]: 2.83 mL/min/kg and 1.3 mL/min/kg and 1.83 mL/min/kg and 4.17 mL/min/kg and 3.17 mL/min/kg and 3 mL/min/kg and 2.5 mL/min/kg | Cmax, individual patients [1]: 3600 ng/mL and 2900 ng/mL and 1280 ng/mL and 1860 ng/mL and 2260 ng/mL and 2740 ng/mL and 3160 ng/mL | Tmax, individual patients (first group RBT 150 mg TPW): 3 h | Tmax, individual patients [1]: 1 h and 4 h and 6 h | Cmax (human, plasma, oral, 150 mg, first group RBT 150 mg TPW, read-out: Cmax, individual patients): 1910 ng/mL | AUC(0-t) [2]: 12700 ng·h/mL | concentration at 12 h [2]: 1700 ng/mL | Cmax (human, plasma, oral, LPV/RTV 400/100 mg twice daily with RBT 150 mg TPW (n = 9), median and IQR, read-out: Cmax): 2700 ng/mL | Tmax [3]: 2 h | AUC(0-t) [3]: 6600 ng·h/mL | concentration at 12 h [3]: 600 ng/mL | CL/F (human, plasma, oral, LPV/RTV 400/100 mg twice daily with RBT 300 mg TPW (n = 7), median and IQR, read-out: CL (apparent clearance, CL/F) (converted)): 4.83 mL/min/kg | Cmax (human, plasma, oral, LPV/RTV 400/100 mg twice daily with RBT 300 mg TPW (n = 7), median and IQR, read-out: Cmax): 1500 ng/mL | C1, individual patients [1]: 1.91 µg/mL and 3.8 µg/mL and 3.1 µg/mL and 0.4 µg/mL and 1.86 µg/mL and 2 µg/mL | C1, individual patients [4]: Low and 0.37 µg/mL and 1.97 µg/mL and 2.14 µg/mL and 1.64 µg/mL and 1.5 µg/mL | C2, individual patients [1]: 1.72 µg/mL and 3.6 µg/mL and 2.6 µg/mL and 1.7 µg/mL and 2.5 µg/mL and 2.24 µg/mL | C2, individual patients [4]: 1 µg/mL and 0.4 µg/mL and 0.8 µg/mL and 2.22 µg/mL and 2.43 µg/mL and 1.9 µg/mL and 1.12 µg/mL | C3, individual patients [1]: 1.65 µg/mL and 3.5 µg/mL and 2.9 µg/mL and 0.64 µg/mL and 0.4 µg/mL and 1.81 µg/mL | C3, individual patients [4]: 1.33 µg/mL and 0.3 µg/mL and 0.8 µg/mL and 1.41 µg/mL and 2.4 µg/mL and 1.9 µg/mL and 1.2 µg/mL | C4, individual patients [1]: 1.2 µg/mL and 2.7 µg/mL and 1.7 µg/mL and 1.28 µg/mL and 0.5 µg/mL and 2.26 µg/mL | C4, individual patients [4]: 1.44 µg/mL and 0.38 µg/mL and 0.9 µg/mL and 0.95 µg/mL and 1.67 µg/mL and 2 µg/mL and 1 µg/mL | C6, individual patients [1]: 1.64 µg/mL and 3.3 µg/mL and 1.5 µg/mL and 0.7 µg/mL and 1 µg/mL | C6, individual patients [4]: 1.22 µg/mL and 0.3 µg/mL and 0.8 µg/mL and 1.45 µg/mL and 1.3 µg/mL and 2.5 µg/mL and 0.5 µg/mL | C8, individual patients [1]: 1.24 µg/mL and 2.8 µg/mL and 1.2 µg/mL and 2.4 µg/mL and 1 µg/mL and 1.5 µg/mL | C8, individual patients [4]: 1.1 µg/mL and 0.28 µg/mL and 0.9 µg/mL and 0.66 µg/mL and 1 µg/mL and 2 µg/mL and 0.13 µg/mL | C12, individual patients [1]: 1.1 µg/mL and 3.6 µg/mL and 0.6 µg/mL and 0.2 µg/mL and 1.33 µg/mL and 1.7 µg/mL | C12, individual patients [4]: 0.62 µg/mL and low and 0.6 µg/mL and 0.53 µg/mL and 0.7 µg/mL and 1.86 µg/mL and Low | C0, individual patients [1]: 1850 ng/mL and 4110 ng/mL and 3100 ng/mL and 1200 ng/mL and 2100 ng/mL and 1430 ng/mL | C0, individual patients [4]: below the limit of quantification and Low and 0.41 µg/mL and 0.2 µg/mL and 2.72 µg/mL and 1.84 µg/mL and 1.55 µg/mL and 2.3 µg/mL | reduction of plasma concentrations, RBT 300 mg versus RBT 150 mg (patients receiving RBT 300 mg TPW compared to RBT 150 mg TPW, listed as RTV): nearly halved; also recorded: nearly half | Cl, individual patients [4]: 6.5 mL/min/kg and 13.5 mL/min/kg and 9 mL/min/kg and 2.67 mL/min/kg and 3.33 mL/min/kg and 2.5 mL/min/kg and 4.83 mL/min/kg | Tmax, individual patients [4]: 4 h and 6 h and 1 h
